Results: patent US10351856B2, “Ribonucleic acid aptamer having inhibitory effect on non-small cell lung cancer and pharmaceutical composition comprising same” (BIOPHARMAGEN CORP., FANGZHOU SUZHOU, priority 2016, dated 2019)
Values joined by “and” are separate entries in the source; they are usually repeats but may differ in a detail not shown here. Equal entries are not always repeated. “Also recorded” adds a separate entry of the source.

Columns and labels:
[1] = test system: human non-small cell lung cancer H460 transplanted tumor; assay: RA16-EPI adduct or epirubicin on tumor growth in H460 subcutaneous tumor-bearing mice; format: in vivo; conditions: 3 times, day 16
Protocol: In order to clarify the effect of the nucleic acid aptamer RA16-EPI adduct on the growth of human non-small cell lung cancer solid tumors, the inventors used model mice that were injected with human non-small cell lung cancer H460 cells and constructed with a subcutaneous tumor as experimental subjects (initial mean tumor volume was 200-300 mm^3). They were randomly divided into 6 groups, each of which had 5 tumor-bearing mice. One group served as a negative control group (0.1 ml of normal saline was injected intravenously on the 0th, 7th, and 14th days respectively); and the other 5 groups served as treatment groups (different doses of drugs were given every week, and the administration manners and doses are shown in Table 2.). Every 2 days, the tumor diameter of the tumor-bearing mice was measured, the tumor volume was calculated, and the tumor growth curves were drawn (FIG. 5). On the 16th day, the tumor was extracted, the tumor was weighed, and the tumor growth inhibition rate was calculated.

[2] = test system: human cervical cancer Hela cells; assay: CCK-8 relative viability / proliferation of Hela cells; format: cell-based; conditions: CCK-8, 48 h, 300 nM or 0-400 nM
Protocol: (§1) In order to clarify the effect of the nucleic acid aptamer RA16 on the proliferation of human non-small cell lung cancer cell lines, the inventors used the CCK-8 method (CCK-8 kit purchased from Dojindo Molecular Technologies, Inc.) to detect the relative viability of human non-small cell lung cancer cell line H460 (ATCC) and other tumor cells (human cervical cancer Hela cells) (the initial cell concentration was 2×10^4 cells/ml) after 48 h of treatment by 300 nM RA16. The same treatment was performed as the control with the same concentration of SCAP obtained by randomly shuffling the RA16.
Further, CCK-8 assay was used to detect the growth conditions of human non-small cell lung cancer H460 cells and human cervical cancer Hela cells (the concentration of test cells was about 2×10^4/ml) after 48 hours of treatment with different concentrations of nucleic acid aptamer RA16 and SCAP (concentration 0, 5, 10, 50, 100, 150, 200, 300, 400 nM respectively) with randomly srambled RA16, and after three independent experiments, the results are shown in FIG. 2A-B. […]

[3] = test system: human non-small cell lung cancer cell line H460; assay: CCK-8 relative viability / proliferation of H460 cells; format: cell-based; conditions: for effect on proliferation of H460 cells: CCK-8, 48 h, 300 nM or 0-400 nM
Protocol: as §1
Further, CCK-8 assay was used to detect the growth conditions of human non-small cell lung cancer H460 cells and human cervical cancer Hela cells (the concentration of test cells was about 2×10^4/ml) after 48 hours of treatment with different concentrations of nucleic acid aptamer RA16 and SCAP (concentration 0, 5, 10, 50, 100, 150, 200, 300, 400 nM respectively) with randomly srambled RA16, and after three independent experiments, the results are shown in FIG. 2A-B.
In order to clarify the effect of the nucleic acid aptamer RA16-EPI adduct on the proliferation of human non-small cell lung cancer cell lines, the inventors used the CCK-8 method to detect the relative viability of human non-small cell lung cancer cell line H460 and other tumor cell lines (human cervical cancer Hela cells) (initial cell concentration was 2×10^4 cells/ml) after 48 h of treatment by 375 nM RA16-EPI.

[4] = test system: human non-small cell lung cancer H460 transplanted tumor; assay: RA16 on tumor growth in H460 subcutaneous tumor-bearing mice; format: in vivo; conditions: 2 nmol i.v. on days 0, 3, 5, 7, 9; tumor weighed on day 16
Protocol: In order to clarify the effect of the nucleic acid aptamer RA16 on the growth of human non-small cell lung cancer solid tumors, the inventors used model mice that were injected with human non-small cell lung cancer H460 cells and constructed with a subcutaneous tumor as experimental subjects (initial mean tumor volume was 100 mm^3 or so). They were randomly divided into two groups, each of which had 6 tumor-bearing mice. One group served as a negative control group (0.1 ml of normal saline was injected intravenously on the 0th, 3rd, 5th, 7th, and 9th days respectively); and the other was an RA16 treatment group (2 nmol of RA16 was injected intravenously the 0th, 3rd, 5th, 7th, and 9th days respectively). Every other day, the tumor diameter of the tumor-bearing mice was measured, the tumor volume was calculated, and the tumor growth curves were drawn (FIG. 4). On the 16th day, the tumor was extracted, the tumor was weighed, and the tumor growth inhibition rate was calculated.

[5] = high dose, EPI 1.5 mg/kg/week i.v.
[6] = low dose, EPI 0.5 mg/kg/week i.v.

COc1cccc2c1C(=O)c1c(O)c3c(c(O)c1C2=O)C[C@@](O)(C(=O)CO)C[C@@H]3O[C@H]1C[C@H](N)[C@@H](O)[C@H](C)O1 [Epirubicin]
Inhibition Rate (%) of tumor growth [1, 5]: 47.13% | Tumor Weight [1, 5]: 1.97 ± 0.38 g | Inhibition Rate (%) of tumor growth ([1]; high dose, EPI 1.5 mg/kg/week i.v., listed as EPI): 47.13% | Inhibition Rate (%) of tumor growth [1, 6]: 28.76% | Tumor Weight [1, 6]: 2.65 ± 0.21 g

B1: RA16: ribonucleic acid aptamer of SEQ ID NO: 1, prepared by in vitro transcription, binds human non-small cell lung cancer (nucleic acid)
chain: GGGAGAGAACAAUGACCUGCGGUGCCAAGCCGUCGGGUUAUGUUGAUCUCCACAAGGACGAGUGCAUUGCAUCACGUCAGUAG
modifications: listed as RNA, chemistry not fully specified
effect on human cervical cancer Hela cells [2]: no inhibitory effect; also recorded: no obvious effects; also recorded: no significant effect | effect on proliferation of H460 cells [3]: obviously inhibit the proliferation | IC50 ([3]; CCK-8, 48 hours, 0-400 nM, read-out: IC50 of inhibition of proliferation of H460 cells): 117 nM | Inhibition Rate (%) of tumor growth [4]: 54.3% and 54.26%

B2: SCAP: nucleic acid obtained by randomly shuffling the sequence of RA16, SEQ ID NO: 2, control (nucleic acid)
chain: GGGAGAGAACAAUGACCUGUUGCAAGCGCGUCGGUAAUUCGCGCACAUGGCAGGCUUCUGAGUGCAUUGCAUCACGUCAGUAG
modifications: listed as RNA, chemistry not given here
effect on proliferation of H460 cells [3]: little effect
